Results: patent US20230078764A1 (Yumanity Therapeutics, Inc., priority 2019, published 2023)
Where two headings read alike, the source gives them in different places.

What was measured:
Assay type in all cases: cell-based
human SCD1 [1] = target: human SCD1 (Homo sapiens, UniProt O00767); test: Growth inhibition of yeast strain expressing human SCD1 as sole desaturase (OLE1 deleted), OD600 readout
human SCD5 [2] = target: human SCD5 (Homo sapiens, UniProt Q86SK9); test: Growth inhibition of yeast strain expressing human SCD5 as sole desaturase (OLE1 deleted), OD600 readout
human SCD1 [3] = target: T1, human SCD1 (Homo sapiens, UniProt O00767); test: Growth inhibition of yeast strain expressing human SCD1 as sole desaturase (OLE1 deleted), OD600 readout; conditions: yeast strain expressing human SCD1 as sole desaturase; growth (OD600) after 40 h at 30° C.; read-out: SCD1 IC50
T1 construct: expressed in transfected cells; host or cells: yeast strain with OLE1 deleted, plasmid-borne human SCD1 (selected in SD-Ura)
T1 sequence (O00767 1-359): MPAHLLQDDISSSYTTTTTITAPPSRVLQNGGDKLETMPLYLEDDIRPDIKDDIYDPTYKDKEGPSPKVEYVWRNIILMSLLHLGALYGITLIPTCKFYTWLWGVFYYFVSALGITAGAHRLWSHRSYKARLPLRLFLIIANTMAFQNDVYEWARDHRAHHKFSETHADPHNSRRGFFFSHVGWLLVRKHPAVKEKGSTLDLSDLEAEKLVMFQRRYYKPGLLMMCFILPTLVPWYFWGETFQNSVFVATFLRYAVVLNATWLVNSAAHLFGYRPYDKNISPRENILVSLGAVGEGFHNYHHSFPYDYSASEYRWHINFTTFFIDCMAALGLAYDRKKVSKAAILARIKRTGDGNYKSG

human SCD5 [4] = target: T2, human SCD5 (Homo sapiens, UniProt Q86SK9); test: Growth inhibition of yeast strain expressing human SCD5 as sole desaturase (OLE1 deleted), OD600 readout; conditions: yeast strain expressing human SCD5 as sole desaturase; growth (OD600) after 40 h at 30° C.; read-out: SCD5 IC50
T2 construct: expressed in transfected cells; host or cells: yeast strain with OLE1 deleted, plasmid-borne human SCD5 (selected in SD-Ura)
T2 sequence (Q86SK9 1-330): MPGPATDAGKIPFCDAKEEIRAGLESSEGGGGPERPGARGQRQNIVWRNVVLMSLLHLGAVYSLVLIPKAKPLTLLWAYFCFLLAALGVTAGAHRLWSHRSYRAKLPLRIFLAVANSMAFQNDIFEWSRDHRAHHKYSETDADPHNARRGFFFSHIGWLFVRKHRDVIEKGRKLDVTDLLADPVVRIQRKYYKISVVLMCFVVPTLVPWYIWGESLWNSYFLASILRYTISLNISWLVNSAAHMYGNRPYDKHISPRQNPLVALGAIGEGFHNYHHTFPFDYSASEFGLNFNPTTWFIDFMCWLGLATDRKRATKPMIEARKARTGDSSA

IC50 (human SCD1 [1])	IC50 (human SCD5 [2])	SMILES	IC50 (human SCD1 [3])	IC50 (human SCD5 [4])
590 nM	190 nM	CN1N=C(C(=O)Nc2ncc(Cc3ccccc3)s2)CCC1=O		
	20100 nM	CN1N=C(C(=O)Nc2ncc(Cc3cccc(Cl)c3)cn2)CCC1=O [Compound 175, N-(5-(3-chlorobenzyl)pyrimidin-2-yl)-1-methyl-6-oxo-1,4,5,6-tetrahydropyridazine-3-carboxamide]	> 45000 nM	
		N#Cc1ccc(C(=O)Nc2ccc(Cc3ccc(F)c(Cl)c3)cn2)nc1 [Compound 130, N-(5-(3-chloro-4-fluorobenzyl)pyridin-2-yl)-5-cyanopicolinamide]	> 45000 nM	40 nM
